Patent publication US12599603B2, “Methods of treatment” (INTRA-CELLULAR THERAPIES, INC., priority 2019, dated 2026)

Columns and labels:
CT26 xenograft tumors = assay: Growth of CT26 xenograft tumors, Compound 1 alone or with anti-PD-1 (Example 2); assay type: in vivo, BALB/c mice; settings: Compound 1 50 mg/kg i.p. qd 5 days/week from day 7; anti-PD-1 sub-effective dose i.p. days 7, 10 and 14; isotype group zero out of nine
Description: The effects of Compound 1, alone or combination with sub-effective doses of the checkpoint inhibitor, anti-PD-1, were assessed on the growth of CT26 xenograft tumors in BALB/c mice. Treatment-naïve tumor-bearing mice (i.e., isotype group) were compared with groups of mice receiving monotherapy of Compound 1 defined in Example 1, mice receiving a sub-effective dose of a checkpoint inhibitor (anti-PD-1 antibody), and mice receiving both Compound 1 and a sub-effective dose of anti-PD-1 antibody.
(§1) BALB/c mice were subcutaneously injected with CT26 cells at day 0 and then divided into four groups at day 7: (1) Compound 1 treatment, (50 mg/kg, i.p. qd), 5 days/week; (2) Isotype group, ip mlgG isotype at days 7, 10 and 14; (3) Anti-PD-1 group, administered i.p. at days 7, 10 and 14; and (4) Combination group, treated with Compound 1 and anti-PD-1 as group 1 and group 3. Tumor volumes were measured every 2 or 3 days. At day 17-18, tumors were excised, dissected, and used to make single cell suspensions. These tumor single cell suspensions were incubated with FC blocker (eBioscience) and then stained with antibodies on ice in the dark. Samples were acquired on a FACSCalibur, LSRII or LSRII yellow (BD Biosciences), and analyzed with FlowJo (Tree Star).
At the end of experiments, tumors were also weighed.

[1] = tested on: tumor-infiltrating immune cells of CT26 tumors; assay: FACS of tumor-infiltrating immune cells in CT26 tumors (Example 2); assay type: in vivo, BALB/c mice; settings: FACS of tumors excised at day 17-18
Description: as §1

CT26 murine cancer cells = assay: Growth of CT26 murine colon carcinoma tumors in BALB/C mice (Example 1); assay type: in vivo; settings: 50 mg/kg once daily i.p. from day 7, after 30 days, vs untreated control (FIG. 1)
Description: Aliquots of cancerous cells are injected into the subscapular space of BALB/C mice to induce colon carcinoma. The tumors are allowed to grow for 7 days, when tumor volume is measured. Once a tumor has formed, drug treatment is initiated (50 mg/kg Compound 1, once daily, i.p. in 0.5% methylcellulose vehicle) and tumor growth is observed and recorded daily. Compounds 1 is shown below:
The mice were sacrificed at thirty days post-injection, and the tumors are isolated from the mice.

[2] = tested on: immune cells in the tumor microenvironment of CT26 tumors; assay: Flow cytometry of immune cells in dissociated CT26 tumors (Example 1); assay type: in vivo, BALB/C mice; settings: 50 mg/kg once daily i.p.; tumors isolated at thirty days post-injection; flow cytometry (FIG. 2)
Description: The tumors were then enzymatically dissociated into a single cell suspensions, stained with fluorophore-tagged antibodies and are analyzed by flow cytometry. Cells were sorted and analyzed for immune markers. […] In turn, it is believed this this allows the innate immune system to more efficiently target tumor cells, which is consistent with the results observed here (i.e., increased activation of T-cells in the tumor microenvironment).

## CN1C(=O)c2c(nn(Cc3ccc(-c4cccc(F)n4)cc3)c2Nc2ccccc2)N2C1=N[C@@H]1CCC[C@@H]12 [Compound 1]
CT26 xenograft tumors
  mice showing tumor clearance (tumor volume smaller than 100 mm^3): one out of five
[1]
  numbers of CD45+ tumor (infiltrating) macrophages: significantly decreased numbers
  numbers of CD45+ tumor (infiltrating) monocytes: significantly decreased numbers
CT26 murine cancer cells
  tumor growth: significantly slowed tumor growth
[2]
  CD8 T-cells in the tumor microenvironment: significant increases
  macrophage presence in the tumor microenvironment: significant decrease
  monocytes in the tumor microenvironment: significant increases
